Activity calls are given as the source filed them. The calls are words filed in the database; no cut-off is given here.
How the values were obtained:
HT-29 [1] = assay: Cytotoxicity against ATM proficient human HT-29 cells assessed as reduction in cell viability incubated for 72 hrs by MTT assay; assay type: functional, cell-based; conditions: dose 0.001-100 µM, DDE = dose-dependent effect
A549 = assay: Antiproliferative activity against ATM proficient human A549 cells assessed as reduction in cell viability incubated for 72 hrs by MTT assay; assay type: functional, cell-based; conditions: dose 0.001-100 µM, DDE = dose-dependent effect
Granta-519 = assay: Antiproliferative activity against ATM-deficient human Granta-519 cells assessed as reduction in cell viability incubated for 72 hrs by MTT assay; assay type: functional, cell-based; conditions: dose 0.001-100 µM, DDE = dose-dependent effect
SW-620 = assay: Antiproliferative activity against ATM-deficient human SW-620 cells assessed as reduction in cell viability incubated for 72 hrs by MTT assay; assay type: functional, cell-based; conditions: dose 0.001-100 µM, DDE = dose-dependent effect
[2] = molecular target: T1, Serine/threonine-protein kinase ATR (Homo sapiens, UniProt Q13535); assay: Inhibition of human recombinant full length ATR using GST-cMyc-p53 as substrate incubated for 40 mins in presence of ATP by HTRF assay
Target sequence in this assay (Q13535 whole entry): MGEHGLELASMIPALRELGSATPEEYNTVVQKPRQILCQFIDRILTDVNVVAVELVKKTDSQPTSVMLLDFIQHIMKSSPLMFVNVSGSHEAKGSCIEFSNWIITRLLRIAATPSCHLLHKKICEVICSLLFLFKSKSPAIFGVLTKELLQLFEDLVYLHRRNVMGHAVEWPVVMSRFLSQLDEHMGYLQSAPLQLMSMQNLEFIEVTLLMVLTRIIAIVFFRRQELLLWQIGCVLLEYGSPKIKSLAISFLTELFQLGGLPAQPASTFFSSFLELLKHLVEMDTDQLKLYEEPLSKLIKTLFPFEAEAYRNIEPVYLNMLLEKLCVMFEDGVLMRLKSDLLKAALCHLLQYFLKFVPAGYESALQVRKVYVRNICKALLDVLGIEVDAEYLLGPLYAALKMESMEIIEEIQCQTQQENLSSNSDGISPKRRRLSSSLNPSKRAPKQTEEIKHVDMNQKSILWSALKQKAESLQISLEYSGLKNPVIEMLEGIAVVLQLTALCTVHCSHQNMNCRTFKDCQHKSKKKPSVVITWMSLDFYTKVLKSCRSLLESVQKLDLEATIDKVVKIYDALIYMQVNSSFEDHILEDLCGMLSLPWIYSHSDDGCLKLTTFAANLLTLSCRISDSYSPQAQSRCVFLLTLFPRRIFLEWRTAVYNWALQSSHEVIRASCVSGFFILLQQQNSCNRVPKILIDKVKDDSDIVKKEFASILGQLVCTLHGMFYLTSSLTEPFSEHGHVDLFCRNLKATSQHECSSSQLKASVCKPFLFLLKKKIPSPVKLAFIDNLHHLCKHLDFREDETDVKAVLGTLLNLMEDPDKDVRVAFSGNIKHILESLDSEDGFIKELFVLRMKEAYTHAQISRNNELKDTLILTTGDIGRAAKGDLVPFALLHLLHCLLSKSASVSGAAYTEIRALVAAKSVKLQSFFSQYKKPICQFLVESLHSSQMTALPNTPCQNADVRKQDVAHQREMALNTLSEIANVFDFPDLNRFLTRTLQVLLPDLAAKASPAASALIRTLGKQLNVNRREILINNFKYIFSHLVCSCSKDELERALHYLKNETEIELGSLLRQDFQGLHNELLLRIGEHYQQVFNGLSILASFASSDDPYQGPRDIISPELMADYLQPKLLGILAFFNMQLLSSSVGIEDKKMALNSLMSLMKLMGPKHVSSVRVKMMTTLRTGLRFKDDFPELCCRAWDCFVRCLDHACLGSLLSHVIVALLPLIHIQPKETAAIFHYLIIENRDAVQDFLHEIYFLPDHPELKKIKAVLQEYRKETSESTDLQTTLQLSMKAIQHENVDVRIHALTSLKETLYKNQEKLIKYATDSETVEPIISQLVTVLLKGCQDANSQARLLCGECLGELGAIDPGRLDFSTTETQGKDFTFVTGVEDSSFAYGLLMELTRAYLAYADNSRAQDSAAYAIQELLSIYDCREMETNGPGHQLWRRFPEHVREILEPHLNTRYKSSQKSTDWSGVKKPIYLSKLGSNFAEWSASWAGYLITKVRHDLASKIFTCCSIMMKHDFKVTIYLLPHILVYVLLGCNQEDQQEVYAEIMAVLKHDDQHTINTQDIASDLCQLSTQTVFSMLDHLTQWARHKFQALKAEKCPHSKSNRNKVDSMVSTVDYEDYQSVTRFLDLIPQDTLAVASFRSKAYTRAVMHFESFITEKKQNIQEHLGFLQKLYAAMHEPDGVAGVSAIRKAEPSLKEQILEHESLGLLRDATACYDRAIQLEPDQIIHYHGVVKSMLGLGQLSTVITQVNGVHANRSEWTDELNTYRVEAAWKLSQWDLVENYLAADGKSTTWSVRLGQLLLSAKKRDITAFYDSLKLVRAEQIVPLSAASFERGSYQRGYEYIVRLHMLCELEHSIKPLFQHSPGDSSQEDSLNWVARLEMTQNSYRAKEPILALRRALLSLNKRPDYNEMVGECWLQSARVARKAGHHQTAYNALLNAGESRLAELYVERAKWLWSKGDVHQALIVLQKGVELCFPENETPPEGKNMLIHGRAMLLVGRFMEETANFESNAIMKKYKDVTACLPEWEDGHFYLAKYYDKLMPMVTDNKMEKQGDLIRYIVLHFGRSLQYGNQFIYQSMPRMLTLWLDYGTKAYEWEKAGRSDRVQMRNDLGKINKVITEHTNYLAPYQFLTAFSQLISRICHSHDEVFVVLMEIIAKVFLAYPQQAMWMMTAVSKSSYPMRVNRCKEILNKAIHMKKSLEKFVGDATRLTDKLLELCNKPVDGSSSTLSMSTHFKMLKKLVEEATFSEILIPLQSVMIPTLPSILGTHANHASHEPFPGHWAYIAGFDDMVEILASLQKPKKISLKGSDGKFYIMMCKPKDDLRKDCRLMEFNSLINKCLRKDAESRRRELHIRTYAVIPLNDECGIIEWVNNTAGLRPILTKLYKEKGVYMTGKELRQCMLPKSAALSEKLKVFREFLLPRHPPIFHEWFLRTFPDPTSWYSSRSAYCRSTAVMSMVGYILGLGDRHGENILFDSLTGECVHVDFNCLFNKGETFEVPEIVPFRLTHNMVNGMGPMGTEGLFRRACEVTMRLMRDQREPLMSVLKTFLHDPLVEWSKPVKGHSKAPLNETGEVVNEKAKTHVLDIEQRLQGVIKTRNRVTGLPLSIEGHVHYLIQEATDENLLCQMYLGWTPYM

[3] = molecular target: T1, Serine/threonine-protein kinase ATR; assay: Inhibition of ATR signalling in ATM-deficient human LoVo cells assessed as inhibition of ATR phosphorylation incubated for 1 hr followed by hydroxyurea addition measured after 4 hrs by Western blot analysis; assay type: cell-based; conditions: dose <= 3.0 µM, time 5.0 hrs, DDE = dose-dependent effect
Target sequence in this assay (Q13535 whole entry, looked up): as the sequence (Q13535 whole entry) above

LoVo [4] = assay: Inhibition of colony formation in human LoVo cells assessed as inhibition of cell proliferation incubated for 24 hrs followed by culture medium replenishment with drug-free medium for every 72 hrs and measured after 14 days by crystal violet staining method; assay type: functional, cell-based; conditions: dose 0.03-3 µM, DDE = dose-dependent effect
LoVo [5] = assay: Antimigratory activity in human LoVo cells assessed as suppression of cell migration measured up to 48 hrs by wound healing assay; assay type: functional, cell-based; conditions: dose <= 1.0 µM, DDE = dose-dependent effect
LoVo [6] = assay: Induction of apoptosis in human LoVo cells deficient in ATM assessed as viable cells at 0.3 uM measured after 24 hrs by Annexin V-FITC/Propidium iodide staining based flow cytometry analysis (reference value: 91.64%); assay type: functional; conditions: read-out: Activity
LoVo [7] = assay: Induction of apoptosis in human LoVo cells deficient in ATM assessed as necrotic cells at 0.3 uM measured after 24 hrs by Annexin V-FITC/Propidium iodide staining based flow cytometry analysis (reference value: 0.84%); assay type: functional
LoVo [8] = assay: Induction of apoptosis in human LoVo cells deficient in ATM assessed as viable cells at 1 uM measured after 24 hrs by Annexin V-FITC/Propidium iodide staining based flow cytometry analysis (reference value: 91.64%); assay type: functional; conditions: read-out: Activity
LoVo [9] = assay: Induction of apoptosis in human LoVo cells deficient in ATM assessed as necrotic cells at 3 uM measured after 24 hrs by Annexin V-FITC/Propidium iodide staining based flow cytometry analysis (reference value: 0.84%); assay type: functional
LoVo [10] = assay: Induction of apoptosis in human LoVo cells deficient in ATM assessed as late apoptotic cells at 3 uM measured after 24 hrs by Annexin V-FITC/Propidium iodide staining based flow cytometry analysis (reference value: 3.32%); assay type: functional
HT-29 [11] = assay: Induction of apoptosis in human HT-29 cells assessed as necrotic cells at 1 uM measured after 48 hrs by Annexin V-FITC/Propidium iodide staining based flow cytometry analysis (reference value: 0.73%); assay type: functional
HT-29 [12] = assay: Induction of apoptosis in human HT-29 cells assessed as early apoptotic cells at 3 uM measured after 48 hrs by Annexin V-FITC/Propidium iodide staining based flow cytometry analysis (reference value: 1.55%); assay type: functional
HT-29 [13] = assay: Induction of apoptosis in human HT-29 cells assessed as late apoptotic cells at 3 uM measured after 48 hrs by Annexin V-FITC/Propidium iodide staining based flow cytometry analysis (reference value: 0.71%); assay type: functional
HT-29 [14] = assay: Induction of apoptosis in human HT-29 cells assessed as necrotic cells at 1 uM measured after 48 hrs in presence of AZD1390 by Annexin V-FITC/Propidium iodide staining based flow cytometry analysis (reference value: 0.23%); assay type: functional
HT-29 [15] = assay: Induction of apoptosis in human HT-29 cells assessed as viable cells at 3 uM measured after 48 hrs in presence of AZD1390 by Annexin V-FITC/Propidium iodide staining based flow cytometry analysis (reference value: 95.33%); assay type: functional; conditions: read-out: Activity
HT-29 [16] = assay: Induction of apoptosis in human HT-29 cells assessed as necrotic cells at 3 uM measured after 48 hrs in presence of AZD1390 by Annexin V-FITC/Propidium iodide staining based flow cytometry analysis (reference value: 0.23%); assay type: functional
HT-29 [17] = assay: Induction of apoptosis in human HT-29 cells assessed as late apoptotic cells at 3 uM measured after 48 hrs in presence of AZD1390 by Annexin V-FITC/Propidium iodide staining based flow cytometry analysis (reference value: 0.63%); assay type: functional
[18] = Half life in Sprague-Dawley rat at 5 mg/kg, iv measured at 0.083 to 24 hrs by LC-MS/MS method; assay type: ADME, organism-based; conditions: in vivo, time 0.083-24 hrs
[19] = Tmax in Sprague-Dawley rat at 10 mg/kg, po measured at 0.083 to 24 hrs by LC-MS/MS method; assay type: ADME, organism-based; conditions: in vivo, time 0.083-24 hrs
[20] = AUC (0 to infinity) in Sprague-Dawley rat at 10 mg/kg, po measured at 0.083 to 24 hrs by LC-MS/MS method; assay type: ADME, organism-based; parameters: time lower 0.083 hrs, dose 10 mg/kg, time upper 24 hrs, route po; conditions: in vivo
[21] = Volume of distribution at steady state in Sprague-Dawley rat at 5 mg/kg, iv measured at 0.083 to 24 hrs by LC-MS/MS method; assay type: ADME, organism-based; conditions: in vivo, time 0.083-24 hrs, read-out: Vdss
[22] = Toxicity in NOD/SCID mouse xenografted with human LoVo cells assessed as damage in spleen at 50 to 100 mg/kg, po administered bid for 30 days measured after 2 hrs post last dose by H and E staining method; assay type: organism-based; conditions: in vivo, 720 h, dose 50-100 mg/kg, time 30 day
LoVo [23] = assay: In vivo induction of DNA damage in human LoVo cells xenografted in NOD/SCID mouse assessed as increase in gamma H2AX level administered orally twice a day for 30 days by immuno histochemical analysis; assay type: functional, organism-based; conditions: dose 50-100 mg/kg, route po, time 30.0 day, DDE = dose-dependent effect
HT-29 [24] = assay: Induction of DNA damage in human HT-29 cells proficient in ATM at 1 uM measured after 3 days in presence of AZD1390 by immunofluorescence assay; assay type: functional, cell-based; conditions: time 3.0 day
[25] = molecular target: Serine/threonine-protein kinase B-raf (Homo sapiens, UniProt P15056); assay: Inhibition of human recombinant B-raf (416 to end residue) using myelin-Bas as substrate incubated for 40 mins in presence of ATP by scintillation counting method
Chain of Serine/threonine-protein kinase B-raf (P15056 whole entry): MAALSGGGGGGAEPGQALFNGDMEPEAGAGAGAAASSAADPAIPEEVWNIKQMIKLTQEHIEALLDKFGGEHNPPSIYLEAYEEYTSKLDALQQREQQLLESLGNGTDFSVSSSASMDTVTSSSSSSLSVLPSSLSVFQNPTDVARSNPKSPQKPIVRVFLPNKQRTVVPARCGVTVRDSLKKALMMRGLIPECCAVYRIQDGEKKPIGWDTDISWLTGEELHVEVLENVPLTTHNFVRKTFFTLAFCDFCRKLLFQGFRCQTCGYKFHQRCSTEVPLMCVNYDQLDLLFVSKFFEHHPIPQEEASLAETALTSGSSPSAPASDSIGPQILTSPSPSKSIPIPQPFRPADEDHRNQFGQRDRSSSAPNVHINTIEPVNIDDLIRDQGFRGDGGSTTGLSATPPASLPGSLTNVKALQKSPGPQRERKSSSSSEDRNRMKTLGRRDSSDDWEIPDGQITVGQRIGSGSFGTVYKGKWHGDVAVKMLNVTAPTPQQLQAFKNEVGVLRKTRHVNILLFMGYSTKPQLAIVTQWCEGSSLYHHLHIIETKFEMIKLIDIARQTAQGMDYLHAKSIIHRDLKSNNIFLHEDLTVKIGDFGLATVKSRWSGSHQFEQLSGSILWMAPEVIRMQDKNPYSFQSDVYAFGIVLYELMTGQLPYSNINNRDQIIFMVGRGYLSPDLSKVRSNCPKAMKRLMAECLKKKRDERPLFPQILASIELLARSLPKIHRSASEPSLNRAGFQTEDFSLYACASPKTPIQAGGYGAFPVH

[26] = molecular target: T1, Serine/threonine-protein kinase ATR; assay: Inhibition of ATR signalling in ATM-deficient human LoVo cells assessed as change in expression of Chk1 at up to 3 uM incubated for 1 hr followed by hydroxyurea addition measured after 4 hrs by Western blot analysis; assay type: cell-based; conditions: time 5.0 hrs
Target sequence in this assay (Q13535 whole entry, looked up): as the sequence (Q13535 whole entry) above

[27] = molecular target: T1, Serine/threonine-protein kinase ATR; assay: In vivo inhibition of ATR in human LoVo cells xenografted in NOD/SCID mouse assessed as inhibition of ATR phosphorylation at 50 to 100 mg/kg, po administered twice a day for 30 days by Western blot analysis; conditions: dose 50-100 mg/kg, time 30.0 day
Target sequence in this assay (Q13535 whole entry, looked up): as the sequence (Q13535 whole entry) above

IC50 [2]: 13 nM | inhibition [3]: Dde | half-life [18]: 1.37 h | Tmax [19]: 1.67 h | AUC(0-inf) [20]: 2720 ng·h/mL | Vd [21]: 2.03 L/kg | IC50 [25]: 1770 nM | inhibition [26]: Active | Activity [27]: Active
Compound: C[C@@H]1COCCN1c1nc(-c2cccc3[nH]ccc23)nc2ccc(-c3ccnn3C)cc12
Activity (HT-29 [1]): Dde | Activity (A549): Dde | Activity (Granta-519): Dde | Activity (SW-620): Dde | inhibition (LoVo [4]): Dde | Activity (LoVo [5]): Dde | viability at 0.3 µM (LoVo [6]): 55.9% | Activity (LoVo [7]): 2.71% | viability at 1 µM (LoVo [8]): 47.8% | Activity (LoVo [9]): 3.01% | Activity (LoVo [10]): 28.73% | Activity (HT-29 [11]): 1.06% | Activity (HT-29 [12]): 2.64% | Activity (HT-29 [13]): 2.52% | Activity (HT-29 [14]): 2.1% | viability at 3 µM (HT-29 [15]): 58% | Activity (HT-29 [16]): 5.39% | Activity (HT-29 [17]): 20.78% | Activity [22]: Non-Toxic | Activity (LoVo [23]): Dde | Activity (HT-29 [24]): Active
